Earlier results as cited in patent US8147876B2, “Medical agent for preventing or treating diseases resulting from one of inflammation and remodeling, and method for preventing or treating the diseases” (National University Corporation Tokyo Medical and Dental …, priority 2007, dated 2012).

Tested on: VCAM-1
Conditions: human tracheal smooth muscle cells, J Cell Physiol. 2006

## COc1cc(/C=C/C(=O)CC(=O)/C=C/c2ccc(O)c(OC)c2)ccc1O [Curcumin]
  TNFα-induced VCAM-1 expression: inhibit
